Results: paper PMC5841354, “Gomesin peptides prevent proliferation and lead to the cell death of devil facial tumour disease cells” (Cell Death Discovery, 2018)
Where a SMILES comes first, the peptide text is derived from it. Bridges are numbered along the chain shown (N, C = ends). [ ]: non-standard residue; d: D form. pGlu = O=C1CC[C@@H](C(=O)O)N1

How the values were obtained:
DFTD4 cells [1] = test: MTT cell viability, DFTD4 cells; assay type: cell-based, Tasmanian devil (Sarcophilus harrisii); conditions: 48 h; for cell viability / anti-proliferative activity in DFTD4 cells: 50 µg/mL; for anti-proliferative / cytotoxic activity compared with AgGom: DFTD cell lines (DFTD1, DFTD2, DFTD4)
From the text: (§1) All DFTD (DFTD1, DFTD2, and DFTD4) and fibroblast (FIBS) cell lines were obtained from the Department of Primary Industries, Parks, Water, and Environment, State Government of Tasmania (DPIPWE) and were established as part of management plan and adhere to a standard operating practice. The DFTD1 cell line with catalogue number 3287 is derived from the tumour from a female devil (tag number: 06/2887) collected at St Marys, Eastern Tasmania in 2006. DFTD2 cell line with catalogue number 8961 was developed from a tumour from a male devil (tag number: 12/0625) collected at Kempton, Northern Tasmania in 2012. The DFTD4 cell line with catalogue number 4099 was developed from the tumour of a male devil (tag number: 07/0192) that was collected at Freycinet, east coast of Tasmania in 2007 and Fibroblasts cells (FIBS) with catalogue number 497 were obtained from a healthy devil male pup (tag number: 05/0962) held at Mount Pleasant, Southeastern of Tasmania in 2005.
(§2) Devil Facial Tumor cancer cell lines, and the control Tasmanian Devil fibroblast (FIBS) healthy cell line were maintained in a humidified incubator at 35 °C and 5% CO2. The DFTD cell lines were cultured in RPMI-1640 medium supplemented with 10% FCS, and 2 mM Glutamax. The FIBS was grown in GIBCO AmnioMAX-C100 Basal Medium liquid, containing AmnioMAX-C100 supplement. Penicillin/streptomycin (PS) (100 U/ml each) was added to both media. The cells were passaged at ~90% confluency. Functional studies were performed with passages up to 20. All cell lines were mycoplasma free.
(§3) Cell viability as an indicator of the number of viable and proliferative cells was measured by MTT according to the protocol of the manufacturer (Sigma-Aldrich, Australia). In brief, 8000 DFTD and 5000 FIBS cells/well were seeded in a 96-flat adherent microtiter well plate for 24 h to allow cell adhesion. Gomesin peptides and/or analogues were then added to the plates to measure MTT reduction. Plates were measured after 48 h at 540 nm absorbance in a microplate reader (BIOTEK PowerWave XS, USA). 0.1% SDS was used as a positive control (100% toxicity). A row of untreated cells was used to define 100% viability and blank wells containing only media were used to extract background. The concentration of gomesin peptides causing 50% inhibition (EC50) in DFTD and FIBS cells was determined using GraphPad Prism Software (Graphpad Inc, USA).

FIBS cells = test: MTT cell viability, non-transformed fibroblasts (FIBS); assay type: cell-based, Tasmanian devil (Sarcophilus harrisii); conditions: 48 h; for deleterious effects on FIBS viability: 50 µg/mL
From the text: as §1, §2, §3

DFTD4 cells [2] = test: Annexin V-FITC/PI apoptosis and necrosis; assay type: cell-based, Tasmanian devil (Sarcophilus harrisii); conditions: 24 h
Description: Apoptosis in DFTD4 cells treated with AgGom or HiGom was measured using an Annexin V-FITC Apoptosis detection kit in combination with a Canto II high-throughput fluorescence-activated cell sorter (BD Biosciences, USA). Briefly, cells were seeded at a density of 100,000 cells/well in a round-bottom 96-well plate and treated with 50 µg/mL AgGom or HiGom for 24 h. The cells were collected mechanically, washed twice with PBS and once with wash buffer provided by the manufacturer. Cells were stained simultaneously with FITC-labelled annexin V and PI for 30 min in the dark and at room temperature before being analysed.

DFTD = conditions: human chemotherapeutic agents in Tasmanian devils; cited from earlier work
From the text: With no treatment available for DFTD, scientists maintain captive, disease-free breeding populations that are released into the wild. Major research efforts are focused on understanding the molecular mechanisms of DFTD and why tumour cells fail to stimulate an immune response in the Tasmanian Devil, including the dramatic downregulation of the expression of Major Histocompatibility Complex (MHC) Class I genes[5]–[9]. Previous trials to treat DFTD using human chemotherapeutic agents, such as vincristine, doxorubicin, and carboplatin have proven to be unsuccessful[10],[11]. In this study, we pos ...

DFTD4 cells [3] = test: Cell cycle analysis (PI, flow cytometry); assay type: cell-based, Tasmanian devil (Sarcophilus harrisii); conditions: 50 μg/mL, 24 h, mean ± SEM, three independent experiments
Description: DFTD4 cells were synchronised by removing serum from the medium for ~24 h. Cells were then transferred into medium containing serum and treated with AgGom or HiGom at 50 µg/mL for 24 h. Cells were detached mechanically, washed with PBS and fixed with 70% ethanol for ~1 h at 4 °C. Ethanol was removed by centrifugation (453 g for 5 min) and cells were washed with PBS. Cells were treated with 5 µL of 10 µg/mL ribonuclease A to remove RNA contamination and further incubated for 1 h at 37 °C to allow release of low-molecular weight DNA. Cell pellets were stained with 10 µL of propidium iodide (PI) (1 mg/ml) and analysed at a maximum emission of 605 nm using a LSR Fortessa 5 analyser (BD Biosciences, San Diego, CA, US). Approximately 10,000 events were recorded and data were analysed using FlowJo software v10.06 (FlowJo, US).

DFTD4 cells [4] = test: qRT-PCR of cell cycle check-point, pro-survival and apoptosis genes; assay type: cell-based, Tasmanian devil (Sarcophilus harrisii); conditions: 50 μg/mL, vs. vehicle
Description: Total RNA was extracted from both untreated (control) and gomesin-treated DFTD4 cells using an RNeasy kit (Qiagen, Australia) and 1 µg was reverse-transcribed into cDNA using SensiFast (Bioline, UK). Quantitative real time-PCR (qRT-PCR) to quantitate mRNA expression was performed on a LightCycler Instrument (Roche Molecular Biochemicals, Australia) with Tasmanian devil 18S used as the reference (housekeeper) gene. All primers are listed in Supplementary.

DFTD4 cells [5] = test: Reactive oxygen species (Carboxy-H2DCFDA, flow cytometry); assay type: cell-based, Tasmanian devil (Sarcophilus harrisii); conditions: 50 μg/mL, 24 h, vs. untreated
Description: An Amplex Red Hydrogen Peroxidase assay kit (Invitrogen, Australia) was used to measure reactive oxygen species (ROS) generation in DFTD4 cells. A fluorescence probe that detects intracellular H2O2, Carboxy-H2DCFDA, was added 30 min prior to collecting cells to measure ROS production in DFTD4 cells that were previously treated with gomesin peptides at 50 µg/mL for 24 h. Fluorescent cells were washed twice with PBS prior to analysis on a FACSCalibur flow cytometer (BD Biosciences, USA) using excitation and emission wavelengths of 492 nm and 517 nm, respectively. Approximately 10,000 events were recorded per sample and the readout was analysed using FlowJo software v10.06 (FlowJo, USA).

DFTD4 cells [6] = test: Mitochondrial membrane potential (Rhodamine 123); assay type: cell-based, Tasmanian devil (Sarcophilus harrisii); conditions: 50 µg/mL, 24 h, vs. vehicle
Description: We measured the mitochondrial membrane potential (MMP) using Rhodamine 123 (Rhod-123) (Sigma-Aldrich, Australia), a cationic dye that is localised in mitochondria. Loss-of-MMP results in loss-of-Rhod-123 fluorescence. Approximately 1 × 10^6 DFTD4 cells treated with AgGom or HiGom at 50 µg/mL for 24 h were collected and resuspended in 0.1 ml of culture medium, stained with 10 µg/mL Rhod-123 for 30 min, and then washed with PBS. The intracellular concentration of Rho123 was determined immediately after by flow cytometry (BD Biosciences, USA) using an excitation wavelength of 488 nm. The data were analysed using FlowJo v10.06 (FlowJo, USA).

## ZCRRACYKQRCVTYCRGR-NH2 (bicyclic or more) [AgGomL5A, AgGom analogue L5A]
DFTD4 cells [1]
  cell viability / anti-proliferative activity in DFTD4 cells: eradicated the anti-proliferative activity

## CC(C)C[C@@H]1NC(=O)[C@H](CCCNC(=N)N)NC(=O)[C@H](CCCNC(=N)N)NC(=O)[C@@H](NC(=O)[C@@H]2CCC(=O)N2)CSSC[C@@H](C(=O)N[C@@H](CCCNC(=N)N)C(=O)NCC(=O)N[C@@H](CCCNC(=N)N)C(N)=O)NC(=O)[C@H](Cc2ccc(O)cc2)NC(=O)[C@H]([C@@H](C)O)NC(=O)[C@H](C(C)C)NC(=O)[C@@H]2CSSC[C@H](NC1=O)C(=O)N[C@@H](Cc1ccc(O)cc1)C(=O)N[C@@H](CCCCN)C(=O)N[C@@H](CCCNC(=N)N)C(=O)N[C@@H](CCCNC(=N)N)C(=O)N2 [AgGomKR] ([pGlu]CRRLCYKRRCVTYCRGR-NH2; disulfide 2-15, 6-11)
DFTD4 cells [1]
  anti-proliferative / cytotoxic activity compared with AgGom: higher anti-proliferative activity than AgGom
FIBS cells
  deleterious effects on FIBS viability: minimal deleterious effects

## CC[C@@]1(O)C(=O)OCc2c1cc1n(c2=O)Cc2cc3ccccc3nc2-1 [camptothecin, reference compound]
DFTD4 cells [2]; 10 µM, positive control
  late apoptosis: > 30%

## COc1cccc2c1C(=O)c1c(O)c3c(c(O)c1C2=O)C[C@@](O)(C(=O)CO)C[C@@H]3O[C@H]1C[C@H](N)[C@H](O)[C@H](C)O1 [doxorubicin]
DFTD
  outcome of trials to treat DFTD: unsuccessful

## CC(C)C[C@@H]1NC(=O)[C@H](CCCNC(=N)N)NC(=O)[C@H](CCCNC(=N)N)NC(=O)[C@@H](NC(=O)[C@@H]2CCC(=O)N2)CSSC[C@@H](C(=O)N[C@@H](CCCNC(=N)N)C(=O)NCC(=O)N[C@@H](CCCNC(=N)N)C(N)=O)NC(=O)[C@H](Cc2ccc(O)cc2)NC(=O)[C@H]([C@@H](C)O)NC(=O)[C@H](C(C)C)NC(=O)[C@@H]2CSSC[C@H](NC1=O)C(=O)N[C@@H](Cc1ccc(O)cc1)C(=O)N[C@@H](CCCNC(=N)N)C(=O)N[C@@H](CC(N)=O)C(=O)N[C@@H](CCCNC(=N)N)C(=O)N2 [HiGom] ([pGlu]CRRLCYRNRCVTYCRGR-NH2; disulfide 2-15, 6-11)
DFTD4 cells [3]
  G0/G1: 47.2 ± 0.66
  G2/M: 13.3 ± 0.7
  S-phase: 13.7 ± 1.9
DFTD4 cells [1]
  cell viability / anti-proliferative activity in DFTD4 cells: dramatically reduced the cell viability
  anti-proliferative / cytotoxic activity compared with AgGom: more cytotoxic than AgGom
DFTD4 cells [4]
  expression of BCL2: enhanced
  expression of p53: enhanced
  p27 expression: elevated
FIBS cells
  deleterious effects on FIBS viability: not statistically significant
FIBS cells; 0.5 to 25 µg/mL
  effects on FIBS viability: negligible effects
DFTD4 cells [5]
  ROS: significant increase in ROS
DFTD4 cells [2]; 50 µg/mL
  early or late apoptotic cell ratio: not altered
  necrosis of DFTD cells compared to untreated cells: significantly increased necrosis
DFTD4 cells [6]
  MMP: significant decrease in MMP

## N.N.O=C([O-])C1(C(=O)[O-])CCC1.[Pt+2] [carboplatin]
DFTD
  outcome of trials to treat DFTD: unsuccessful

## CC(C)C[C@@H]1NC(=O)[C@H](CCCNC(=N)N)NC(=O)[C@H](CCCNC(=N)N)NC(=O)[C@@H](NC(=O)[C@@H]2CCC(=O)N2)CSSC[C@@H](C(=O)N[C@@H](CCCNC(=N)N)C(=O)NCC(=O)N[C@@H](CCCNC(=N)N)C(N)=O)NC(=O)[C@H](Cc2ccc(O)cc2)NC(=O)[C@H]([C@@H](C)O)NC(=O)[C@H](C(C)C)NC(=O)[C@@H]2CSSC[C@H](NC1=O)C(=O)N[C@@H](Cc1ccc(O)cc1)C(=O)N[C@@H](CCCCN)C(=O)N[C@@H](CC(N)=O)C(=O)N[C@@H](CCCNC(=N)N)C(=O)N2 [AgGomKN] ([pGlu]CRRLCYKNRCVTYCRGR-NH2; disulfide 2-15, 6-11)
DFTD4 cells [1]
  anti-proliferative / cytotoxic activity compared with AgGom: higher anti-proliferative activity than AgGom
FIBS cells
  deleterious effects on FIBS viability: minimal deleterious effects

## CC[C@]1(O)C[C@H]2CN(CCc3c([nH]c4ccccc34)[C@@](C(=O)OC)(c3cc4c(cc3OC)N(C=O)[C@H]3[C@@](O)(C(=O)OC)[C@H](OC(C)=O)[C@]5(CC)C=CCN6CC[C@]43[C@@H]65)C2)C1 [vincristine]
DFTD
  outcome of trials to treat DFTD: unsuccessful

## CC[C@H](C)[C@@H]1NC(=O)[C@H](CCCNC(=N)N)NC(=O)[C@H](CCCNC(=N)N)NC(=O)[C@@H](NC(=O)[C@@H]2CCC(=O)N2)CSSC[C@@H](C(=O)N[C@@H](CCCNC(=N)N)C(=O)NCC(=O)N[C@@H](CCCNC(=N)N)C(N)=O)NC(=O)[C@H](Cc2ccc(O)cc2)NC(=O)[C@H]([C@@H](C)O)NC(=O)[C@H](Cc2ccccc2)NC(=O)[C@@H]2CSSC[C@H](NC1=O)C(=O)NCC(=O)N[C@@H](CCCNC(=N)N)C(=O)N[C@@H](CCCNC(=N)N)C(=O)N[C@@H](CCCNC(=N)N)C(=O)N2 [SpGom] ([pGlu]CRRICGRRRCFTYCRGR-NH2; disulfide 2-15, 6-11)
DFTD4 cells [1]
  anti-proliferative / cytotoxic activity compared with AgGom: higher anti-proliferative activity than AgGom
FIBS cells
  deleterious effects on FIBS viability: minimal deleterious effects

## ZCRRLCYKQRCATYCRGR-NH2 (bicyclic or more) [AgGomV12A, AgGom analogue V12A]
DFTD4 cells [1]
  cell viability / anti-proliferative activity in DFTD4 cells: eradicated the anti-proliferative activity

## ZCARLCYKQRCVTYCRGR-NH2 (bicyclic or more) [AgGomR3A, AgGom analogue R3A]
DFTD4 cells [1]
  cell viability / anti-proliferative activity in DFTD4 cells: eradicated the anti-proliferative activity
